According to ChEMBL document CHEMBL3885881, “DrugMatrix”:

Species on record: Rattus norvegicus
Assay: DrugMatrix - Regimen: Daily Repeat
Type: toxicity, organism-based, Sprague-Dawley
Set-up: regimen Daily Repeat, gender Male, age 6-8 weeks
Conditions: in vivo, iv, vehicle 100 % SALINE; for ABSOLUTE BASOPHIL / ABSOLUTE EOSINOPHIL / ABSOLUTE LYMPHOCYTE / ABSOLUTE MONOCYTE / ABSOLUTE SEGMENTED NEUTROPHIL / BASOPHIL / EOSINOPHIL / ERYTHROCYTE COUNT / HEMATOCRIT / HEMOGLOBIN / LEUKOCYTE COUNT / LYMPHOCYTE / MEAN CORPUSCULAR HEMOGLOBIN / MEAN CORPUSCULAR HEMOGLOBIN CONCENTRATION / MEAN CORPUSCULAR VOLUME / MONOCYTE / NEUTROPHIL / NUCLEATED RED BLOOD CELLS / PLATELET COUNT: tissue Blood; for ALANINE AMINOTRANSFERASE / ALBUMIN / ALKALINE PHOSPHATASE / ASPARTATE AMINOTRANSFERASE / BLOOD UREA NITROGEN / CARBON DIOXIDE / CHLORIDE / CHOLESTEROL / CREATINE PHOSPHOKINASE / CREATININE / GLUCOSE / LACTATE DEHYDROGENASE / LIPASE / PHOSPHORUS / POTASSIUM / SODIUM / TOTAL BILIRUBIN / TOTAL PROTEIN / URIC ACID: tissue Plasma
[1] = 0 mg/kg, 72 h, dose level Control, time 3 day
[2] = 0 mg/kg, 120 h, dose level Control, time 5 day
[3] = 12 mg/kg, 72 h, dose level High, time 3 day

## Cc1c(N)nc([C@H](CC(N)=O)NC[C@H](N)C(N)=O)nc1C(=O)N[C@H](C(=O)N[C@H](C)[C@@H](O)[C@H](C)C(=O)N[C@H](C(=O)NCCc1nc(-c2nc(C(=O)NCCC[S+](C)C)cs2)cs1)[C@@H](C)O)[C@@H](O[C@@H]1O[C@@H](CO)[C@@H](O)[C@H](O)[C@@H]1O[C@H]1O[C@H](CO)[C@@H](O)[C@H](OC(N)=O)[C@@H]1O)c1c[nH]cn1.[Br-] [BLEOMYCIN A2]
[1]
  ABSOLUTE BASOPHIL: 0 CELLS/uL
  ABSOLUTE EOSINOPHIL: 33.67 CELLS/uL
  ABSOLUTE LYMPHOCYTE: 12123.5 CELLS/uL
  ABSOLUTE MONOCYTE: 243.5 CELLS/uL
  ABSOLUTE SEGMENTED NEUTROPHIL: 1282.67 CELLS/uL
  BASOPHIL: 0%
  EOSINOPHIL: 0.33%
  ERYTHROCYTE COUNT: 5.18 x10E6/uL
  HEMATOCRIT: 32.63%
  HEMOGLOBIN: 12.87 G/DL
  LEUKOCYTE COUNT: 13.68 x10E3/uL
  LYMPHOCYTE: 88.67%
  MEAN CORPUSCULAR HEMOGLOBIN: 24.98 pg
  MEAN CORPUSCULAR HEMOGLOBIN CONCENTRATION: 39.48 G/DL
  MEAN CORPUSCULAR VOLUME: 63.23 fL
  MONOCYTE: 1.83%
  NEUTROPHIL: 9.17%
  NUCLEATED RED BLOOD CELLS: 0.17 /100WBC
  PLATELET COUNT: 1114.5 x10E3/uL
  ALANINE AMINOTRANSFERASE: 46.17 u/L
  ALBUMIN: 4.15 G/DL
  ALKALINE PHOSPHATASE: 374.67 u/L
  ASPARTATE AMINOTRANSFERASE: 89.33 u/L
  BLOOD UREA NITROGEN: 14.83 mg/dL
  CARBON DIOXIDE: 25.67 mmol/L
  CHLORIDE: 101.17 MEQ/L
  CHOLESTEROL: 63.5 mg/dL
  CREATINE PHOSPHOKINASE: 494.67 u/L
  CREATININE: 0.17 mg/dL
  GLUCOSE: 163 mg/dL
  LACTATE DEHYDROGENASE: 269.33 u/L
  LIPASE: 10.67 u/L
  PHOSPHORUS: 11.27 mg/dL
  POTASSIUM: 5.85 MEQ/L
  SODIUM: 141.68 MEQ/L
  TOTAL BILIRUBIN: 0.18 mg/dL
  TOTAL PROTEIN: 5.87 G/DL
  URIC ACID: 1.28 mg/dL
[2]
  ABSOLUTE BASOPHIL: 0 CELLS/uL
  ABSOLUTE EOSINOPHIL: 24.67 CELLS/uL
  ABSOLUTE LYMPHOCYTE: 11832.83 CELLS/uL
  ABSOLUTE MONOCYTE: 279.67 CELLS/uL
  ABSOLUTE SEGMENTED NEUTROPHIL: 1446.17 CELLS/uL
  BASOPHIL: 0%
  EOSINOPHIL: 0.17%
  ERYTHROCYTE COUNT: 5.61 x10E6/uL
  HEMATOCRIT: 35.02%
  HEMOGLOBIN: 13.82 G/DL
  LEUKOCYTE COUNT: 13.58 x10E3/uL
  LYMPHOCYTE: 87.67%
  MEAN CORPUSCULAR HEMOGLOBIN: 24.68 pg
  MEAN CORPUSCULAR HEMOGLOBIN CONCENTRATION: 39.5 G/DL
  MEAN CORPUSCULAR VOLUME: 62.42 fL
  MONOCYTE: 2%
  NEUTROPHIL: 10.17%
  NUCLEATED RED BLOOD CELLS: 0 /100WBC
  PLATELET COUNT: 1178.17 x10E3/uL
  ALANINE AMINOTRANSFERASE: 52.83 u/L
  ALBUMIN: 4.12 G/DL
  ALKALINE PHOSPHATASE: 370 u/L
  ASPARTATE AMINOTRANSFERASE: 100.5 u/L
  BLOOD UREA NITROGEN: 15.17 mg/dL
  CARBON DIOXIDE: 28.83 mmol/L
  CHLORIDE: 101 MEQ/L
  CHOLESTEROL: 69.5 mg/dL
  CREATINE PHOSPHOKINASE: 488.67 u/L
  CREATININE: 0.23 mg/dL
  GLUCOSE: 165 mg/dL
  LACTATE DEHYDROGENASE: 502.17 u/L
  LIPASE: 11 u/L
  PHOSPHORUS: 11.7 mg/dL
  POTASSIUM: 5.85 MEQ/L
  SODIUM: 142.45 MEQ/L
  TOTAL BILIRUBIN: 0.18 mg/dL
  TOTAL PROTEIN: 5.85 G/DL
  URIC ACID: 1.43 mg/dL
[3]
  ABSOLUTE BASOPHIL: 0 CELLS/uL
  ABSOLUTE EOSINOPHIL: 0 CELLS/uL
  ABSOLUTE LYMPHOCYTE: 10537 CELLS/uL
  ABSOLUTE MONOCYTE: 346.67 CELLS/uL
  ABSOLUTE SEGMENTED NEUTROPHIL: 2083 CELLS/uL
  BASOPHIL: 0%
  EOSINOPHIL: 0%
  ERYTHROCYTE COUNT: 6.18 x10E6/uL
  HEMATOCRIT: 38.57%
  HEMOGLOBIN: 15.13 G/DL
  LEUKOCYTE COUNT: 12.97 x10E3/uL
  LYMPHOCYTE: 81.67%
  MEAN CORPUSCULAR HEMOGLOBIN: 24.5 pg
  MEAN CORPUSCULAR HEMOGLOBIN CONCENTRATION: 39.23 G/DL
  MEAN CORPUSCULAR VOLUME: 62.37 fL
  MONOCYTE: 2.67%
  NEUTROPHIL: 15.67%
  NUCLEATED RED BLOOD CELLS: 0 /100WBC
  PLATELET COUNT: 1055.67 x10E3/uL
  ALANINE AMINOTRANSFERASE: 38 u/L
  ALBUMIN: 3.8 G/DL
  ALKALINE PHOSPHATASE: 233.67 u/L
  ASPARTATE AMINOTRANSFERASE: 110 u/L
  BLOOD UREA NITROGEN: 10.33 mg/dL
  CARBON DIOXIDE: 27.67 mmol/L
  CHLORIDE: 100.33 MEQ/L
  CHOLESTEROL: 56.33 mg/dL
  CREATINE PHOSPHOKINASE: 923.67 u/L
  CREATININE: 0.12 mg/dL
  GLUCOSE: 136.67 mg/dL
  LACTATE DEHYDROGENASE: 439.67 u/L
  LIPASE: 9.67 u/L
  PHOSPHORUS: 10.5 mg/dL
  POTASSIUM: 5.86 MEQ/L
  SODIUM: 140.77 MEQ/L
  TOTAL BILIRUBIN: 0.13 mg/dL
  TOTAL PROTEIN: 5.47 G/DL
  URIC ACID: 1.3 mg/dL
